In ChEMBL document CHEMBL1201862, “PubChem BioAssay data set” (2004):
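Growth conditions: 96-well plates. Treatment: test compound, 48 hours, 5 concentrations. Analysis: linear interpolation between bracketing concentrations; unreached endpoints set to highest concentration. At the GI50, growth is halved.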 Active and inactive are the calls of the source. Cut-off read from the data, not from the text of the source: active = GI50 up to about 1.1 µM and inactive = higher.

Key:
Test in all cases: inhibition of tumour cell growth, NCI panel, 48 h
OVCAR-4 = test system: OVCAR-4
Malme-3M = test system: Malme-3M
SNB-75 = test system: SNB-75
ACHN = test system: ACHN
SF-268 = test system: SF-268
PC-3 = test system: PC-3
DU-145 = test system: DU-145
MDA-N = test system: MDA-N
UACC-257 = test system: UACC-257
NCI-H460 = test system: NCI-H460
A549 = test system: A549
CCRF-CEM = test system: CCRF-CEM
HOP-92 = test system: HOP-92
OVCAR-8 = test system: OVCAR-8
A498 = test system: A498
OVCAR-5 = test system: OVCAR-5
SF-295 = test system: SF-295
NCI/ADR-RES = test system: NCI/ADR-RES
UO-31 = test system: UO-31
RXF 393 = test system: RXF 393

Measured: GI50

COc1cc2oc(=O)ccc2cc1CC=C(C)C [SUBEROSIN]
inactive: OVCAR-4 23.4 µM | Malme-3M 37.4 µM | SNB-75 41.1 µM | ACHN 35.2 µM | SF-268 47.8 µM | PC-3 83 µM | DU-145 36.8 µM | MDA-N 52.5 µM | UACC-257 54.3 µM | NCI-H460 50.8 µM | A549 46.8 µM | CCRF-CEM 44 µM | HOP-92 18 µM | OVCAR-8 44.6 µM | A498 27.2 µM | OVCAR-5 72.6 µM | SF-295 41.1 µM | NCI/ADR-RES 22.9 µM | UO-31 21.9 µM | RXF 393 16.9 µM
